In US20050148633A1 (priority 2003, published 2005):
pEC50, pIC50: −log10 of the molar value.

Assays:
IL-2 production [1] = assay: Inhibition of IL-2 production in PHA-activated Jurkat cells (ELISA); type: cell-based; details: Homo sapiens, PHA 2.5 μg/mL, 20 hours, value bins
Method: Jurkat cells were placed in a 96 well plate (0.5 million cells per well in 1% FBS medium) then test compounds of this invention were added at different concentrations. After 10 minutes, the cells were activated with PHA (final concentration 2.5 μg/mL) and incubated for 20 hours at 37° C. under CO2. The final volume was 200 μL. Following incubation, the cells were centrifuged and the supernatants collected and stored at −70° C. prior to assaying for IL-2 production. A commercial ELISA kit (IL-2 Eli-pair, Diaclone Research, Besancon, France) was used to detect production of IL-2, from which dose response curves were obtained. The IC50 value was calculated as the concentration at which 50% of maximum IL-2 production after stimulation was inhibited versus a non-stimulation control.

[2] = tested on: CRAC ion channel (ICRAC current); assay: Patch clamp inhibition of ICRAC current in Jurkat cells; type: cell-based, human; details: 1 μM compound, n=3
Method: In general, a whole cell patch clamp method was used to examine the effects of a compound of the invention on a channel that mediates Icrac. In such experiments, a baseline measurement was established for a patched cell. Then a compound to be tested was perfused (or puffed) to cells in the external solution and the effect of the compound on Icrac was measured. A compound that modulates Icrac (e.g., inhibits) is a compound that is useful in the invention for modulating CRAC ion channel activity.
Jurkat T cells were grown on glass coverslips, transferred to the recording chamber and kept in a standard modified Ringers solution of the following composition: NaCl 145 mM, KCl 2.8 mM, CsCl 10 mM, CaCl2 10 mM, MgCl2 2 mM, glucose 10 mM, HEPES.NaOH 10 mM, pH 7.2.
The external solution contained 10 mM CaNaR, 11.5 mM glucose and the test compound at the concentrations described below.
The standard intracellular pipette solution contained: Cs-glutamate 145 mM, NaCl 8 mM, MgCl2 1 mM, ATP 0.5 mM, GTP 0.3 mM, pH 7.2 adjusted with CsOH. […]
Patch-clamp experiments were performed in the tight-seal whole-cell configuration at 21-25° C. […] Capacitive currents and series resistance were determined and corrected before each voltage ramp using the automatic capacitance compensation of the EPC-9. […]

IL-2 = assay: Cytokine inhibition in PHA-stimulated primary human PBMCs: IL-2; type: cell-based; details: PBMC
Method: (§1) Cytokine production was measured using commercially available human ELISA assay kits (from Cell Science, Inc.) following the manufacturers instructions.

IL-4 = assay: Cytokine inhibition in PHA-stimulated primary human PBMCs: IL-4; type: cell-based; details: PBMC
Method: as §1

IL-5 = assay: Cytokine inhibition in PHA-stimulated primary human PBMCs: IL-5; type: cell-based; details: PBMC
Method: as §1

IL-10 = assay: Cytokine inhibition in PHA-stimulated primary human PBMCs: IL-10; type: cell-based; details: PBMC
Method: as §1

IL-13 = assay: Cytokine inhibition in PHA-stimulated primary human PBMCs: IL-13; type: cell-based; details: PBMC
Method: as §1

GM-CSF = assay: Cytokine inhibition in PHA-stimulated primary human PBMCs: GM-CSF; type: cell-based; details: PBMC
Method: as §1

INF-γ = assay: Cytokine inhibition in PHA-stimulated primary human PBMCs: INF-γ; type: cell-based; details: PBMC
Method: as §1

TNF-α = assay: Cytokine inhibition in PHA-stimulated primary human PBMCs: TNF-α; type: cell-based; details: PBMC
Method: as §1

RBL cells = assay: Inhibition of degranulation in RBL cells; type: cell-based; details: Rattus norvegicus, anti-DNP IgE / anti-IgE, read-out: concentration at which 50% of degranulation is inhibited
Method: Procedure: • The day before the assay was performed, RBL cells, that had been grown to confluence in a 96 well plate, were incubated at 37° C. for at least 2 hours. The medium was replaced in each well with 100 μL of fresh medium containing of anti-DNP IgE.
On the following day, the cells were washed once with PRS (2.6 mM glucose and 0.1% BSA) and 160 μL of PRS was added to each well. The test compound was addded to a well in a 20 μL solution at 10× of the desired concentration and incubated for 20 to 40 minutes at 37° C. 20 μL of 10× mouse anti-IgE (10 μL/mL). Maximum degranulation occurred between 15 to 40 minutes after addition of anti-IgE.

TRPM4 = target: T1, TRPM4 (Homo sapiens, UniProt Q8TD43); assay: Activation of TRPM4 channel, whole-cell patch clamp in Jurkat cells and HEK-293 cells overexpressing TRPM4; type: cell-based; details: free intracellular calcium 300 nM
T1 construct: FLAG (N); expressed in transfected cells; host or cells: HEK 293 (tetracycline-induced FLAG-humanTRPM4/pCDNA4/TO); also Jurkat cells (endogenous TRPM4)
T1 sequence (Q8TD43 whole entry): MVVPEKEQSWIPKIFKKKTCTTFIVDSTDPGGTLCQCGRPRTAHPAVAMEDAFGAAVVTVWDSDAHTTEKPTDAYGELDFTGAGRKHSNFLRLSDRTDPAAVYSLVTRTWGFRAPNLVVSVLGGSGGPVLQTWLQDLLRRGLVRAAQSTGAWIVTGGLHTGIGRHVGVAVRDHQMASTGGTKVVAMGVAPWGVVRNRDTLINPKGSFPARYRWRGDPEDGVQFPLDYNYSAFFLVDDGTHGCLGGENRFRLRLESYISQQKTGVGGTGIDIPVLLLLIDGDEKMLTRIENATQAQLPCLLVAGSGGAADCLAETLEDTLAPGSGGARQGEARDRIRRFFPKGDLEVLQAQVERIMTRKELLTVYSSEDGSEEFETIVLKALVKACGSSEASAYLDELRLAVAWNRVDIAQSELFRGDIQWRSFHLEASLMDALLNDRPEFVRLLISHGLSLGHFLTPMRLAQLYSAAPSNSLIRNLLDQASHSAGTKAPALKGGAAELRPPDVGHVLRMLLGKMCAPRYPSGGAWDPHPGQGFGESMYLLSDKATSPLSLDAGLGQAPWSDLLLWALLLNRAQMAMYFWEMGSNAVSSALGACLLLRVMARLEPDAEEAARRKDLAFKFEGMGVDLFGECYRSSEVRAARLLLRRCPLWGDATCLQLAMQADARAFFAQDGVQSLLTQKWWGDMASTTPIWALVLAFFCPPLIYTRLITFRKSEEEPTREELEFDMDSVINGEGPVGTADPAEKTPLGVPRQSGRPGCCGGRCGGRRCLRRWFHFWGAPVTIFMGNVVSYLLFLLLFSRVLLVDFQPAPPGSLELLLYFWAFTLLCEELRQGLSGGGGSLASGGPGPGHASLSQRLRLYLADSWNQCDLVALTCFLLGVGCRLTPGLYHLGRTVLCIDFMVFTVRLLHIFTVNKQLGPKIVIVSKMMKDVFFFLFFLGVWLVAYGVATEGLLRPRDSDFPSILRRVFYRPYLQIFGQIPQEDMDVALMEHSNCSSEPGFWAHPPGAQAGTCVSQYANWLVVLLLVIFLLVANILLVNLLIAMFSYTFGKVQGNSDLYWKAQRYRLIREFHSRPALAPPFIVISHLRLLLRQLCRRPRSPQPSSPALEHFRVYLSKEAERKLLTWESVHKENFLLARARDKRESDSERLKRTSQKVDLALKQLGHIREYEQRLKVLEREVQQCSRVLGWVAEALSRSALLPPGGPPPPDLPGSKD
Method: Human leukemic T cells (Jurkat cells) and HEK 293 cells transfected with the FLAG-humanTRPM4/pCDNA4/TO construct were grown on glass coverslips with DMEM medium supplemented with 10% FBS, blasticidin (5 μg/mL) and zeocin ([…]). TRPM4 expression was induced one day before use by adding 1 μg/mL tetracycline to the culture medium and patch clamp experiments were performed 16-24 hours post-induction (for additional details see Launay et al. (2000)).
Patch clamp experiments were performed in the tight-seal whole-cell configuration at 21-25° C. High resolution current recordings were acquired by a computer-based patch clamp amplifier system (EPC-9, HEKA, Lambrecht, Germany). Patch pipettes had resistances between […] after filling with the standard intracellular solution. […] Capacitive currents and series resistance were determined and corrected before each voltage ramp using the automatic capacitance compensation of the EPC-9. The low resolution temporal development of membrane currents was assessed by extracting the current amplitude at −80 mV or +80 mV from individual ramp current records.
TRPM4 currents were measured in Jurkat cells and HEK-293 cells overexpressing TRPM4. […]

[3] = tested on: CRAC ion channel (ICRAC current); assay: Patch clamp inhibition of ICRAC current in primary T cells; type: cell-based; details: primary human T cells, varying concentrations
Method: Membrane currents of individual cells were recorded using the whole-cell configuration of the patch clamp technique with an EPC10 (HEKA Electronik, Lambrecht, Germany). Electrodes (2-5 MD in resistance) were fashioned from borosilicate glass capillary tubes (Sutter Instruments, Novato, Ca). The recordings were done at room temperature.
ICRAC currents were monitored every 2 seconds using a 50 msec protocol, where the voltage was ramped from −100 mV to +100 mV. The membrane potential was held at 0 mV between the test ramps. In a typical experiment the peak inward currents would develop within 50-100 seconds. Once the ICRAC currents were stabilized, the cells were perfused with compounds in the extracellular solution. At the end of an experiment the remaining ICRAC currents were then challenged with a control compound (SKF96365, 10 μM) to ensure that the current could still be inhibited.
The ICRAC current level was determined by measuring the inward current amplitude at −80 mV of the voltage ramp in an off-line analysis using MATLAB. The ICRAC current inhibition for each concentration was calculated using peak amplitude in the beginning of the experiment from the same cell. The IC50 value and Hill coefficient for each compound was estimated by fitting all the individual data points to a single Hill equation. […]

IL-2 production [4] = assay: IL-2 production upon PMA/ionomycin stimulation in whole blood of dosed cynomolgus monkeys; type: in vivo; details: IV 5 mg/kg, 4 hours after dosing
Method: (§2) 3 male non-native cynomolgus monkeys were fasted overnight prior to and for four (4) hours following each dose. Each monkey was given a single intravenous dose of the appropriate test compound followed by a 1 mL rinse of saline to flush the catheter. The dose was infused over one hour using calibrated syringe pumps. Following a one week washout, the same three monkeys were given a single oral gavage dose of the appropriate test compound dose formulation followed by a 10 mL flush with tap water. Following a second one week washout, the same three monkeys received a second oral dose of the appropriate test compound dose formulation followed by a 10 mL flush with tap water. Following a third one week washout, the same three monkeys received a third oral dose of the appropriate test compound dose formulation followed by a 10 mL flush with tap water. Prior to and at 1, 2, and 4 hours following each dose (measured from the start of dosing for IV doses), blood samples ([…] for Group 1 and 2 mL/sample for Groups 2 and 3) were drawn into tubes containing sodium heparin and stored at room temperature, and the concentration of the test compounds in each sample was measured. CsA was included as a positive control.

TNF-α production = TNF-α production upon PMA/ionomycin stimulation in whole blood of dosed cynomolgus monkeys; type: in vivo; details: IV 5 mg/kg, 4 hours after dosing
Method: as §2

| Structure (SMILES) | pIC50 (IL-2 production [1]) | pIC50 (IL-2) | pIC50 (IL-4) | pIC50 (IL-5) | pIC50 (IL-10) | pIC50 (IL-13) | pIC50 (GM-CSF) | pIC50 (INF-γ) | pIC50 (TNF-α) | pIC50 (RBL cells) | inhibition of Icrac in Jurkat cells [2] [%] | pEC50 (TRPM4) | inhibition of ICRAC current in primary T cells compared with RBL cells (FIG. 1) [3] | IL-2 production after IV infusion (FIG. 3) (IL-2 production [4]) | TNF-α production after IV infusion (FIG. 4) (TNF-α production) |
| --- | --- | --- | --- | --- | --- | --- | --- | --- | --- | --- | --- | --- | --- | --- | --- |
| O=C(Nc1ccc(-c2cc(C(F)(F)F)ccc2Cl)cc1)c1cccc(F)c1F [Compound 23] | > 7.00 |  |  |  |  |  |  |  |  |  |  | 7.30 to 7.70 |  |  |  |
| Cc1nnsc1C(=O)Nc1ccc(-c2cc(C(F)(F)F)ccc2C(F)(F)F)cc1 [Compound 24, 4-Methyl-[1,2,3]thiadiazole-5-carboxylic acid (2′,5′-bis-trifluoromethyl-biphenyl-4-yl)-amide] | > 7.00 |  |  |  |  |  |  |  |  |  |  | 7.30 to 7.70 |  |  |  |
| COc1ccc(OC)c(-c2ccc(NC(=O)c3cccc(F)c3F)cc2)c1 [Compound 31, N-(2′,5′-Dimethoxy-biphenyl-4-yl)-2,3-difluoro-benzamide] |  | 8.22 | 7.15 | 7.96 | < 6.00 | 7.29 | 7.01 | 7.38 | 7.17 | 6.42 | > 43 |  | inhibits ICRAC current equally well in primary T cells as in RBL cells | significantly inhibit IL-2 production | significantly inhibit TNF-α production |

Continued, in another order:

| pIC50 (IL-2 production [1]) | pIC50 (IL-2) | pIC50 (IL-4) | pIC50 (IL-5) | pIC50 (IL-10) | pIC50 (IL-13) | pIC50 (GM-CSF) | pIC50 (INF-γ) | pIC50 (TNF-α) | pIC50 (RBL cells) | Structure (SMILES) | inhibition of Icrac in Jurkat cells [2] [%] | pEC50 (TRPM4) | inhibition of ICRAC current in primary T cells compared with RBL cells (FIG. 1) [3] | IL-2 production after IV infusion (FIG. 3) (IL-2 production [4]) | TNF-α production after IV infusion (FIG. 4) (TNF-α production) |
| --- | --- | --- | --- | --- | --- | --- | --- | --- | --- | --- | --- | --- | --- | --- | --- |
| > 7.00 | 7.70 | 6.35 | 7.68 | < 6.00 | 7.12 | 6.35 | 7.06 | 6.57 | 6.37 | COc1ccc(OC)c(-c2ccc(NC(=O)c3ccncc3F)cc2)c1 [Compound 66, 3-fluoro-pyridine-4-carboxylic acid (2′,5′-dimethoxybiphenyl-4-yl)-amide] | > 90 |  |  |  |  |
| > 7.00 | 8.40 | 6.99 | 8.15 | < 6.00 | 7.82 | 6.82 | 7.64 | 7.09 |  | CSc1ccccc1-c1ccc(NC(=O)c2ccncc2C)cc1 [Compound 75, 3-methyl-pyridine-4-carboxylic acid (2′-methylsulfanyl-biphenyl-4-yl)-amide] |  |  |  |  |  |
